Earlier results on one substance are cited in US5252560A, “Cyclic imide derivatives, compositions and use” (Glaxo Inc., priority 1991, dated 1993).

The subject of this data set is arthritis in a collagen-induced model. Particulars: large doses; collagen-induced model in the mouse.

As to “TIMP: the natural inhibitor of collagenase”, the severity of arthritis entry is listed as “decreases the severity of arthritis”.
